These results are taken from ChEMBL document CHEMBL1128063, “Discovery of selective dopamine D3 ligands: I. Dimeric 2-[4-(3-aminopropoxy)phenyl]benzimidazole antagonists” (Bioorg Med Chem Lett, 1995).

The target of assay [1] is D(3) dopamine receptor (Homo sapiens, UniProt P35462). The assay can be described thus: Binding affinity towards human cloned Dopamine D3 receptor in CHO cells by [3H]spiperone displacement. The assay is classed as cell-based.
Assay [2] deals with D(2) dopamine receptor (Homo sapiens, UniProt P14416). In words: Binding affinity towards human cloned Dopamine D2 receptor in CHO cells by [3H]spiperone displacement. The assay is classed as cell-based.
Assay [3] has as its system Mus musculus. The assay can be described thus: Compound was tested for the locomotory activity in mice after ip administration. The assay is classed as functional.
Assay [4] deals with Rattus norvegicus. The assay can be described thus: Compound was tested for the locomotory activity in rats after oral administration; no effect. The assay is classed as functional.

Sequence of D(3) dopamine receptor (P35462 whole entry): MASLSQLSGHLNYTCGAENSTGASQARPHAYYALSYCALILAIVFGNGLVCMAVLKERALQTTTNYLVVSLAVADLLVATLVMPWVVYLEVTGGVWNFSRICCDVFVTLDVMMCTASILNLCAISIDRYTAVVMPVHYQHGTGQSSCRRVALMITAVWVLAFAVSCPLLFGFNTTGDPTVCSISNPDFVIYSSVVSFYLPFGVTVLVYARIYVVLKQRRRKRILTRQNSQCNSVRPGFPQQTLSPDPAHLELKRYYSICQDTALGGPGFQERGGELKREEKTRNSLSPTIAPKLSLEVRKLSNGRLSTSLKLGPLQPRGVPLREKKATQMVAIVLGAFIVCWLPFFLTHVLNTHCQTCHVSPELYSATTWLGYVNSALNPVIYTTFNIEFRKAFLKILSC
Sequence of D(2) dopamine receptor (P14416 whole entry): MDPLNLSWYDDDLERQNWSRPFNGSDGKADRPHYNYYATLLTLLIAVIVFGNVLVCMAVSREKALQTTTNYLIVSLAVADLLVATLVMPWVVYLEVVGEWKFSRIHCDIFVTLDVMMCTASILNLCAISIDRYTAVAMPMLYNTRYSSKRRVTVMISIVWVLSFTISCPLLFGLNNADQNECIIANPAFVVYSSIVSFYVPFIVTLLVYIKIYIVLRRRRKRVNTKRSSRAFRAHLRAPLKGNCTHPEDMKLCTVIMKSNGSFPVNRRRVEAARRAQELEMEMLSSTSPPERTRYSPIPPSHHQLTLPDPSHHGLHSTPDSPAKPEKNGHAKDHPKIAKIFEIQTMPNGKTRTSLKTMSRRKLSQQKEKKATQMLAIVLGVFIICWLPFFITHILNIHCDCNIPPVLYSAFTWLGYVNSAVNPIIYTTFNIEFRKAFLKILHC

As for `CCN(CC)CCCOc1ccc(-c2nc3ccccc3n2CCCCn2c(-c3ccc(OCCCN(CC)CC)cc3)nc3ccccc32)cc1`, the Ki in assay [1] stood at 28 nM; in assay [2], 1490 nM.
In the case of `CCN(CC)CCCOc1ccc(-c2nc3ccccc3n2CCCCCCn2c(-c3ccc(OCCCN(CC)CC)cc3)nc3ccccc32)cc1`, the values for the Ki in assay [1] and in assay [2] were 131 nM and 1750 nM, respectively.
Consider `CCN(CC)CCCOc1ccc(-c2nc3ccccc3n2Cc2ccc(Cn3c(-c4ccc(OCCCN(CC)CC)cc4)nc4ccccc43)cc2)cc1`, for which the Ki was 184 nM in assay [1] and 3440 nM in assay [2].
The corresponding values for `C(=C\Cn1c(-c2ccc(OCCCN3CCOCC3)cc2)nc2ccccc21)/Cn1c(-c2ccc(OCCCN3CCOCC3)cc2)nc2ccccc21` are more than 2040 nM and more than 3330 nM.
Take `C(=C\Cn1c(-c2ccc(OCCCN3CCCC3)cc2)nc2ccccc21)/Cn1c(-c2ccc(OCCCN3CCCC3)cc2)nc2ccccc21`: the values for the Ki in assay [1] and in assay [2] were 9 nM and 56 nM, respectively.
The corresponding values for `CCN(CC)CCCOc1ccc(-c2nc3ccccc3n2CC=CCn2c(-c3ccc(OCCCN(CC)CC)cc3)nc3ccccc32)cc1` are 87 nM and 1520 nM.
For `CCCN(CCC)CCCOc1ccc(-c2nc3ccccc3n2C/C=C/Cn2c(-c3ccc(OCCCN(CCC)CCC)cc3)nc3ccccc32)cc1` the same measures were 5 nM and 343 nM.
`CCN(CC)CCCOc1ccc(-c2nc3ccccc3n2C/C=C/Cn2c(-c3ccc(OC)cc3)nc3ccccc32)cc1`: the inhibition constant Ki in assay [2] worked out at 1410 nM. That is a single-digit micromolar value.
`CCN(CC)CCCOc1ccc(-c2nc3ccccc3n2C/C=C/Cn2c(-c3ccc(OCCCC4CCCCC4)cc3)nc3ccccc32)cc1`: the Ki amounted to 39 nM in assay [1] and 1030 nM in assay [2].
For the compound `CCN(CC)CCCOc1ccc(-c2nc3ccccc3n2C/C=C/Cn2c(-c3ccc(OCCCN(CC)CC)cc3)nc3ccccc32)cc1`, the Ki in assay [1] stood at 35 nM; in assay [2], 2350 nM.
Consider `CCN(CC)CCCOc1ccc(-c2nc3ccccc3n2C/C=C/Cn2c(-c3ccccc3)nc3ccccc32)cc1`, for which the results for the Ki in assay [1] and in assay [2] were 133 nM and 6530 nM, respectively.
Regarding `CCN(CC)CCCOc1ccc(-c2nc3ccccc3n2C/C=C/Cn2c(C)nc3ccccc32)cc1`, the results for the inhibition constant (Ki) in assay [1] and in assay [2] were 1200 nM and more than 3330 nM, respectively.
In the case of `C(=C\Cn1c(-c2ccc(OCCCN3CCN(c4ccccc4)CC3)cc2)nc2ccccc21)/Cn1c(-c2ccc(OCCCN3CCN(c4ccccc4)CC3)cc2)nc2ccccc21`, the Ki is 275 nM in assay [1] and 3940 nM in assay [2].
Turning to `C(=C\Cn1c(-c2ccc(OCCCN3CCCCC3)cc2)nc2ccccc21)/Cn1c(-c2ccc(OCCCN3CCCCC3)cc2)nc2ccccc21`, the ED50 is 7.1 mg/kg in assay [3] and more than 30 mg/kg in assay [4]. In addition, the Ki in assay [1] came out at 10 nM; in assay [2], 517 nM.
`CCN(CC)CCCOc1ccc(-c2nc3ccccc3n2C/C=C/Cn2c(-c3ccc(OCCCN4CCN(c5ccccc5)CC4)cc3)nc3ccccc32)cc1`: the results for the inhibition constant Ki in assay [1] and in assay [2] were 19 nM and 803 nM, respectively.
For `CN(C)CCCOc1ccc(-c2nc3ccccc3n2C/C=C/Cn2c(-c3ccc(OCCCN(C)C)cc3)nc3ccccc32)cc1`, the results for the Ki in assay [1] and in assay [2] were 144 nM and 4990 nM, respectively.
In assay [2], `CCCCN(CCCC)CCCOc1ccc(-c2nc3ccccc3n2C/C=C/Cn2c(-c3ccc(OCCCN(CCCC)CCCC)cc3)nc3ccccc32)cc1` registered a Ki of 472 nM.
